Results on four molecules are retold here after patent publication US20100266591A1, “METHOD OF TREATING ERYTHROPOIETIN HYPORESPONSIVE ANEMIAS” (priority 2008, published 2010).

“Also recorded” adds a separate entry of the source. A value given as a limit tells only on which side of the number the result lay.

For series [1] the following is noted: per mg of protein; cited from earlier work.
The test system of series [2] is C57Bl/6 mice. Briefly: Hgb response in C57Bl/6 mice (Example 1). The format is in vivo, mouse. An excerpt: To comparative the pharmacodynamics of epoetin-α in C57Bl/6 and Tg197 mice, study animals were assigned to groups as shown in Table 1. On Day 0 the mice received a weight-adjusted, subcutaneous injection of test article (freshly diluted from stock) or PBS. Mice were euthanized by CO2 asphyxiation and blood was collected for each sample.
Hematology: Blood samples from mice in the model characterization and pharmacodynamic studies were collected at the times indicated in Tables 1 and 2. Blood was collected from mice anesthetized with a CO2 mixture via open chest cardiac puncture into commercially prepared EDTA coated microtubes. Blood analyses were performed on whole blood using the ADVIA 120 blood analyzer (Bayer Diagnostics, Tarrytown, N.Y.). Data are expressed as group mean±standard deviation. Results: Data are expressed as the group mean and standard deviation or as group mean change from control. Mean values for the PBS control mice were used as the Day 1 baseline. For graphing, the nominal day may differ from the actual day of blood sampling by 1 day. Mean (±standard deviation) hematological data for 30 CBF1 and 50 Tg197 PBS control mice (9 to 13 weeks old) are shown in Table 3.

In series [3] the test system is W/Wv mice. The experiment in a line: Hgb response in c-kit deficient (W/Wv) mice. The series is classed as in vivo, mouse. The settings on record: single subcutaneous dose, 12,000 U/kg. On the procedure:
Materials and Methods. Male and female WBB6F1/J-KitW/KitW-v (black eyed, white coat, affected; Related genotype ala KitW/KitW-v) (W/Wv) mice were obtained from Jackson Laboratories, Bar Harbor, Me. at 5 to 7 weeks of age. These mice are deficient in c-kit the receptor for SCF. The mice were group housed in filter topped plastic shoe-box style cages. CNTO 530 (30 UT-7 Units/ug) and epoetin-α (120 UT-7 Units/ug) were tested and PBS pH 7.4 was used as the control article. Study Design: On Day 1 mice received a weight-adjusted, subcutaneous (s.c.) dose of epoetin-α, CNTO 530 or PBS (10 mL/kg) according to Table 4. Three mice/sex were bled per group at each designated time point according to Table 4. On Days 4, 9, 14, and 28 (males) or 30 (females), mice were anesthetized with CO2 and blood samples ([…]) taken via open chest cardiac puncture for hematology. Blood was collected directly into tubes prepared with EDTA and mixed thoroughly for approximately 10 seconds and placed on a rocker to prevent coagulation. Whole blood was be analyzed using an ADVIA 120 hematology analyzer.
Results. Data are expressed as the group mean and standard deviation or as group mean change from control. Mean values for the PBS control mice were used as the Day 1 baseline. For graphing, the nominal day may differ from the actual day of blood sampling by 1 day.

Series [4] concerns Tg197 mice. The experiment in a line: Hgb response in Tg197 mice (anemia of chronic disease). The format is in vivo, mouse. An excerpt:
The pharmacodynamics of epoetin-α in C57Bl/6 and Tg197 mice was first compared. Secondly, CNTO 530, epoetin-α and darbepoetin in Tg197 mice was compared.
Materials and Methods. Nine-week old heterozygous Tg197-CBA F1 transgenic mice, age-matched C57Bl/6 mice and age-matched CBA-057Bl/6 F1 hybrid (CBF1) mice were obtained from Ace Laboratories (Boyertown, Pa.), Ace Laboratories and Jackson Laboratories (Bar Harbor, Me.), respectively. Founder Tg197 mice for the transgenic colony was obtained from G. Kollias. The breeding stock was maintained as homozygotes and received weekly injections of murine anti-human TNFa antibodies (10 mg/kg intraperitoneally) to control their arthritis. For these experiments, homozygous Tg197 males were bred to CBA females. CBF1 mice were used because their disease progresses more slowly than that seen in homozygous Tg197 mice. The mice were group housed (4 per cage) in filter-topped plastic shoebox style cages. The animals were individually identified with ear tags, placed at least a week prior to the start of the study. […] All mice were maintained in the pathogen-free vivarium at Centocor R&D, Inc., Radnor Pa. The Institutional Animal Care and Use Committee at Centocor approved all associated procedures.
CNTO 530, recombinant human erythropoietin (epoetin-α, OrthoBiotech, Raritian N.J.), darbepoetin (Amgen, Thousand Oaks, Calif.), and PBS. Doses were expressed as mg/kg or UT-7 Units/kg (U/kg).
To comparative the pharmacodynamics of epoetin-α in C57Bl/6 and Tg197 mice, study animals were assigned to groups as shown in Table 1. On Day 0 the mice received a weight-adjusted, subcutaneous injection of test article (freshly diluted from stock) or PBS. Mice were euthanized by CO2 asphyxiation and blood was collected for each sample. […]
Hematology: Blood samples from mice in the model characterization and pharmacodynamic studies were collected at the times indicated in Tables 1 and 2. […] Data are expressed as group mean±standard deviation. Results: Data are expressed as the group mean and standard deviation or as group mean change from control. […]

The subject of series [5] is ala +/+ mice. Briefly: Hgb response in normal ala +/+ littermates. The format is in vivo, mouse. As to conditions: single subcutaneous dose, 12,000 U/kg.
Series [6] concerns UT7 cells. Briefly: UT7 cell proliferation assay. The format is cell-based, human. The procedure: Particularly useful in identifying and calibrating compositions useful in the method of the invention is the UT7 cell proliferation assay. The UT7 is a human leukemic cell line that has been adapted to become EPO-dependant. In order to use the UT7 cell proliferation assay for selection of a composition or a dose to be administered to a subject having low blood hemoglobin content, the cells are washed free or normal culture medium and starved for EPO for 24 hours prior to assay. For example, the UT-7 cell starvation can proceed in IMDM media with added L-glutamine and FBS at 5% (I5Q). The cells are then prepared and suspended in the appropriate media to a final concentration of 6×10^5 cells/mL (yields a final concentration of 30,000 cells per 96-well chamber). An EPO standard is prepared by diluting EPO stock to 5 ng/mL followed by 1:2 serial dilutions down to a concentration of 0.0098 ng/mL in I5Q media. […] Cell proliferation is assessed using a vital stain such as Promega's MTS solution (Promega, Madison, Wis.) according to the manufacturer's instructions. The EC50 is calculated from a curve fit of concentration vs proliferation as measured by the increase in absorbance of the chromophore or other signal. […]
Using UT-7 cells, which display EPO-R and require an ESA for proliferation, competitive binding for the human EPO-R between CNTO 530 inhibited and ^125I-EPO was measured. […]

Series [7] deals with UT7 cells. The settings on record: UT-7EPO cells; cited from earlier work.
Series [8] deals with normal rats. As to conditions: single subcutaneous dose, compared to rhEPO and darbepoetin; cited from earlier work.
For series [9] the following is noted: cited from earlier work.
Series [10] addresses T1, EPO-receptor (form in the assay not stated) (human, UniProt P19235 25-508, limits assumed).
T1 sequence: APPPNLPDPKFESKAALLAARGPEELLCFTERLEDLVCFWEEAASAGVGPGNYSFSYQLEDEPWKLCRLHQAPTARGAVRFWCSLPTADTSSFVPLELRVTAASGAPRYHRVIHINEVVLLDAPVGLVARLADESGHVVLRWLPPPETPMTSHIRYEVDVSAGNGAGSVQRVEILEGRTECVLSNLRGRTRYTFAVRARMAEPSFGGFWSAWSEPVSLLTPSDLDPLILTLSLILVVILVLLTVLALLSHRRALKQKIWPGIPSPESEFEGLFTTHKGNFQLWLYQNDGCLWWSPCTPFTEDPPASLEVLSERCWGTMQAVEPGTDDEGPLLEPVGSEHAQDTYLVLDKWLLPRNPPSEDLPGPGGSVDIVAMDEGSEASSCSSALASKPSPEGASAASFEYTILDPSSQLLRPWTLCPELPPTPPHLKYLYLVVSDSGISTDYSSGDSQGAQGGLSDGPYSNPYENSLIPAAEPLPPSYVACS
Briefly: assay not stated.

In series [11] the target is T2, human EPO-R displayed on UT-7 cells (human, UniProt P19235 25-508).
T2 sequence: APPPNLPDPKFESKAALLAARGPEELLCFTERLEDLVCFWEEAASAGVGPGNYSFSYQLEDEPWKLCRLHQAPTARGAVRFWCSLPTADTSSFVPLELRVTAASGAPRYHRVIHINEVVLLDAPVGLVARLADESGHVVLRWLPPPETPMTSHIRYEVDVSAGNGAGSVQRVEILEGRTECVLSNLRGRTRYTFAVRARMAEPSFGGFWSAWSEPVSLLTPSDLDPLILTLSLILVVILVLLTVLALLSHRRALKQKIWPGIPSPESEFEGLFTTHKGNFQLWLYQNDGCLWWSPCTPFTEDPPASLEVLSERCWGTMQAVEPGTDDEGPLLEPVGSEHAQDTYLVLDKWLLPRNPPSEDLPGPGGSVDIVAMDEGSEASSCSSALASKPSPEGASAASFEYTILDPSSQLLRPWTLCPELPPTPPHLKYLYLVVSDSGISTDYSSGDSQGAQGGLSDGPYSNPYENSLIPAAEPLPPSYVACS
The experiment in a line: cell-based or functional assay.

The target of series [12] is T2, human EPO-R displayed on UT-7 cells. The experiment in a line: competitive binding against 125I-EPO (0.5 nM) on UT-7 cells displaying human EPO-R. On the procedure:
Using UT-7 cells, which display EPO-R and require an ESA for proliferation, competitive binding for the human EPO-R between CNTO 530 inhibited and ¹²⁵I-EPO was measured.

For “Human urinary EPO: isolated human urinary EPO, international reference standard for EPO assays”, the specific activity entry in [1] is “about 70,000 U/mg”.

With “epoetin-α: recombinant human erythropoietin (OrthoBiotech), 166 amino acid sequence SEQ ID NO: 1”, the “day Hgb returned to baseline” value is 15 days in series [2] (0.3 mg/kg s.c., single dose) and at most 8 days in series [4] (0.3 mg/kg s.c., single dose). Moreover, the “increase in Hgb” value in [2] (0.3 mg/kg s.c., single dose) is listed as around 1.5 g/dL; in [5] it was “approximately 2 g/dL”. For the same molecule, the “Hgb response” value is “dose-dependent increase in hemoglobin” in series [2] (0.03 and 0.3 mg/kg s.c.); “little dose response between 0.03 and 0.3 mg/kg” in [4] (single s.c. dose, comparison at 30,000 U/kg). In series [3], the increase in hemoglobin result is “less than 1 g/dL”. Further, the “Hgb response (increase)” value in series [4] (0.3 mg/kg s.c., single dose) was around 1 g/dL. Also, in series [1], the specific activity was 100,000 to 200,000 U/mg. In series [6], this molecule showed an in vitro activity of 120 UT-7 Units/ug. Besides, the EC50 in series [6] (48 hours, MTS) is around 0.018 nM.

Take “CNTO 528: EPO-mimetic peptide antibody fusion protein; disulfide-linked homodimer of SEQ ID NO: 2, two EMP1 copies and portions of human IgG”: the “fold less potent than rhEPO on a molar basis, growth stimulation” value in series [7] was “approximately 10 fold”. The “hematology response / efficacy” value in series [8] was “longer-lived reticulocytosis and a longer-lived increase in hemoglobin; also recorded: only minor changes in red cell distribution width (RDW) or mean cell volume (MCV); also recorded: no effect on mean platelet volume (MPV); also recorded: efficacious in rat models of anemia and in a rat model of pure red cell aplasia”. For the same molecule, in series [9] (IV 0.03-0.9 mg/kg), the “pharmacodynamic response” value was “prolonged, dose-dependent erythropoietic responses; also recorded: dose dependent increase in RBC count; also recorded: dose-dependent increase in soluble transferrin receptor concentration; also recorded: dose-dependent increase in endogenous EPO concentration” and the tolerability result is given as “well tolerated”. In series [9] (IV), the pharmacokinetics entry was “linear and approximately dose proportional”. In addition, the “mean Hgb concentration above baseline at last measurement” value in [9] (approximately 2.5 months after a single dose) is listed as 0.4 g/dL. Moreover, the immunogenicity entry in [9] (human, in vivo) is “No immunogenicity was observed”. Further, the “time of maximum effect on Hgb concentration” value in [9] (single IV dose) was 22 days.

B1: CNTO 530 (Fc fusion)
chain: QIQGGTYSCHFGPLTWVCKPQGGGSCPPCPAPEAAGGPSVFLFPPKPKDTLMISRTPEVTCVVVDVSQEDPEVQFNWYVDGVEVHNAKTKPREEQFNSTYRVVSVLTVLHQDWLNGKEYKCKVSNKGLPSSIEKTISKAKGQPREPQVYTLPPSQEEMTKNQVSLTCLVKGFYPSDIAVEWESNGQPENNYKTTPPVLDSDGSFFLYSRLTVDKSRWQEGNVFSCSVMHEALHNHYTQKSLSLSLGK
notes: EPO-mimetic peptide antibody fusion protein; Homodimer joined by disulfide bonds through cysteines in the immunoglobulin-derived portion; May or may not be glycosylated; also called Dimeric EMP1 construct: CNTO 530
Molecule B1 registered a Kd in series [10] of around 10 nM. For the same molecule, in series [11], the “induction of UT-7 cell proliferation (EC50)” value was around 0.055 nM, the “potency against rHuEPO in a simple proliferation assay using UT-7 cells” value is ~24 fold less potent than rHuEPO (molar) and the “rescue of EPO-deprived UT-7 cells from apoptosis (EC50)” value was around 0.021 nM. The molecule also displayed a half-maximal inhibitory concentration (IC50) in [12] of around 60 nM.
